Reference: patent publication US20210022305A1, “A HUMULUS PLANT VARIANT AND EXTRACTS THEREOF” (BOMI LLC, priority 2018, published 2021)

Tested on: liver cancer tumors (Standard Risk Hepatoblastoma)
Assay: Liver cancer study: cisplatin alone vs cisplatin + ImmunAG, tumor size
Assay type: in vivo, human
Text: Patient Characteristics. There were 99 men and 18 women in the trial. The average age was 53, with a minimum age of 31 and a maximum age of 78. Eighty-six patients (73.5%) were preoperative TACE negative, and 31 patients (26.49%) were preoperative TACE positive. Seventeen patient (14.52%) were HBsAg negative and 100 patients (85.47%) were HBsAg positive. One hundred six patients […] were Anti-HCV negative and 11 patients […] were Anti-HCV positive. Eighteen patients […] were negative for cirrhosis and 99 patients (83.9%) were positive for cirrhosis. Preoperative alpha-fetoprotein (μg/L) was an average of 18.3 with a minimum value of 1.7 and a maximum value of 1089. Cumulative tumor size was an average of 4.89 cm with a minimum of 2.37 cm and a maximum value of 19.62 cm. Fifty-three people had 2 tumors in the liver, 52 people has 3 liver tumors and 12 people had 4 tumors. The average tumor number is […]. There were 7 cases (5.98%) of high Necrosis differentiation, 106 cases of medium (90.59%) Necrosis differentiation, and 4 cases (3.41%) of low Necrosis differentiation. […] The rest, 99 patient (84.6%) had liver capsule invasion in some form.
All these patients were suffering from Standard Risk (SR) Hepatoblastoma- and not Hepatocellular carcinoma or Cholangiocarcinoma. Of these patients, 57 of the men, and 7 of the women, had surgical resectioning of some degree. However at this point of treatment resectioning was not considered a viable option.
There were 54 men and 10 women in the Cisplatin alone treatment group. There were 45 men and 8 women in the Cisplatin+ImmunAG group. The Cisplatin alone treatment group received a dosage of 50-70 mg/m^2, every four weeks for a duration of the study. The Cisplatin+ImmunAG group received the same dosage of Cisplatin as noted above in combination with a 80 mg-600 mg/day dose of ImmunAG (composition comprising CBD, humulene, and β-caryophyllene). The exact dose of ImmunAG was determined based on patient's sex and height, and was administered in three doses over the course of the day.

Question: N.N.[Cl][Pt][Cl] [Cisplatin] was tested. Which “Final tumor sizes, Mean” value (after treatment, cisplatin 50-70 mg/m^2 every four weeks, ImmunAG 80 mg-600 mg/day) did it give?
Answer: Its value is 5.659.

Question: And the “Initial tumor sizes, Mean” value (before treatment, liver tumors of patients)?
Answer: Its value is 4.851.

Question: What about the “Change of mean tumors” value (final vs initial) of the same compound?
Answer: Its value is 17%.

Question: And the “Mean tumors relative to initial (from 1)” value (final vs initial = 1)?
Answer: Its value is 1.17.
